From patent EP4813977A1, “NOVEL COMPOUND AND USE THEREOF” (Protier Biotech Inc., priority 2023, dated 2025)

Assays:
Cereblon (CRBN) protein = target: T1, Cereblon (CRBN) protein (Homo sapiens, UniProt Q96SW2); experiment: CRBN binding affinity, E3scan (Eurofins) competition binding with qPCR read-out; settings: lower % Ctrl = stronger binding, DMSO = 100 % Ctrl, lenalidomide = 0 % Ctrl
T1 construct: purchased Eurofins (E3scan service); host or cells: HEK-293
Experimental: Specifically, CRBN was produced using a HEK-293 cell line and labeled with DNA for qPCR detection. Streptavidin-coated magnetic beads were treated with a biotinylated small-molecule ligand at room temperature for 30 minutes to generate an affinity resin for E3scan analysis. The liganded beads were blocked with excess biotin and washed with a blocking buffer (SeaBlock (Pierce), 1 % BSA, 0.05 % Tween 20, 1 mM DTT) to remove unbound ligands and prevent non-specific binding. […] The test compound was prepared as a 100× stock in 100 % DMSO and diluted directly into the assay solution. All reactions were performed in a polypropylene 384-well plate with a final reaction volume of 0.02 mL. […] The CRBN concentration in the eluate was measured by qPCR. […] A lower '% Ctrl' indicates a stronger binding affinity. […] ((test compound signal−positive control signal)/(negative control signal−positive control signal)) × 100 [formula]

[1] = system: T-cell leukemia cell line Jurkat; experiment: Cell viability assay (Cell Counting Kit-8), Jurkat; assay type: cell-based; settings: Homo sapiens, 72 hours, CCK-8, absorbance 450 nm
Experimental: (§1) To evaluate the cytotoxicity of the compounds synthesized in the Preparation Examples against cancer cells, a cell viability assay following treatment with the synthesized compounds was performed using a T-cell leukemia cell line Jurkat (KCLB, Cat# 40152), a human acute monocytic leukemia cell line MV-4-11 (ATCC, Cat# CRL-9591), and a human multiple myeloma cell line MM.1S (ATCC, Cat# CRL-2974).
(§2) As a culture medium for the cell lines, an RPMI medium containing 10 % heat-inactivated FBS and 1 % penicillin/streptomycin (P/S) antibiotics was used. The culture medium was stored refrigerated and warmed in a 37 °C water bath before use. Each cell line was used for the test after a stabilization period of at least 2 weeks after thawing, and cell culture was performed based on information provided by the cell line manufacturer regarding the thawing and subculture conditions.
(§3) The Jurkat, MV-4-11, or MM.1S cell line was seeded in a 96-well plate at a density of 1 × 10^4 cells/well and incubated in a 37 °C CO2 incubator overnight. After incubation, a prepared test compound was applied to each cell line, and the cells were incubated in a 37 °C CO2 incubator for 72 hours. After 72 hours of incubation, a Cell Counting Kit-8 (Dojindo, Cat# CK04-20) reagent was added, and the cells were incubated in a 37 °C CO2 incubator. Then, the absorbance was measured at 450 nm using a SpectraMax M3 Microplate Reader (N=2, duplicate measurement). The evaluation concentrations for evaluating the cytotoxicity of the compounds were 10 points: 100 µM, 20 µM, 4 µM, 0.8 µM, 0.16 µM, 0.032 µM, 0.0064 µM, 0.00128 µM, 0.000256 µM, and 0 µM, and the test was performed at 2 wells/concentration point (n=2). A GI50 was derived using a GraphPad Prism program.

[2] = system: human multiple myeloma cell line MM.1S; experiment: Cell viability assay (Cell Counting Kit-8), MM.1S; assay type: cell-based; settings: MM1.S, 72 hours, CCK-8, absorbance 450 nm
Experimental: as §1, §2, §3

SMILES	CRBN binding affinity (% Ctrl @ 5µM) (Cereblon (CRBN) protein)	GI50 [1] [nM]	GI50 [2] [nM]
O=C1CCC(N2Cc3cc(C(=O)c4ccccc4)ccc3C2=O)C(=O)N1 (centres unmarked) [Compound 1, 3-(5-benzoyl-1-oxoisoindolin-2-yl)piperidine-2,6-dione]	C (1 ≤ % Ctrl' < 10)	100 to 1000	
O=C1CCC(N2Cc3cc(C(=O)c4c[nH]c5ccccc45)ccc3C2=O)C(=O)N1 (centres unmarked) [Compound 4, 3-(5-(1H-indole-3-carbonyl)-1-oxoisoindolin-2-yl)piperidine-2.6-dione]	B (0.1 ≤ '% Ctrl' < 1)	100 to 1000	≤ 100
O=C1CCC(N2Cc3nc(C(=O)c4ccccc4)ccc3C2=O)C(=O)N1 (centres unmarked) [Compound 5, 3-(2-benzoyl-5-oxo-5,7-dihydro-6H-pyrrolo[3.4-b]pyridin-6-yl)piperidine-2,6-dione]	C (1 ≤ % Ctrl' < 10)		
O=C1CCC(N2Cc3cc(C(=O)n4ncc5ccccc54)ccc3C2=O)C(=O)N1 (centres unmarked) [Compound 6, 3-(5-(1H-indazole-1-carbonyl)-1-oxoisoindolin-2-yl)piperidine-2,6-dione]	A (0 ≤ '% Ctrl' < 0.1)		
O=C1CCC(N2Cc3cc(C(=O)N4CCCC4)ccc3C2=O)C(=O)N1 (centres unmarked) [Compound 7, 3-(1-oxo-5-(pyrrolidine-1-carbonyl)isoindolin-2-yl)piperidine-2,6-dione]	A (0 ≤ '% Ctrl' < 0.1)		
O=C1CCC(N2Cc3cc(C(=O)c4cc5cc(F)ccc5[nH]4)ccc3C2=O)C(=O)N1 (centres unmarked) [Compound 9, 3-(5-(5-fluoro-1H-indole-2-carbonyl)-1-oxoisoindolin-2-yl)piperidine-2,6-dione]		≤ 100	≤ 100
O=C1CCC(N2C(=O)c3ccc(C(=O)c4cc5ccccc5[nH]4)cc3C2=O)C(=O)N1 (centres unmarked) [Compound 10, 2-(2,6-dioxopiperidin-3-yl)-5-(1H-indole-2-carbonyl)isoindoline-1,3-dione]	C (1 ≤ % Ctrl' < 10)	1000 to 10000	
O=C1CCC(N2Cc3cc(C(=O)C4CCN(Cc5ccccc5)CC4)ccc3C2=O)C(=O)N1 (centres unmarked) [Compound 11, 3-(5-(1-benzylpiperidine-4-carbonyl)-1-ox.oisoindolin-2-yl)piperidine-2,6-dione]	A (0 ≤ '% Ctrl' < 0.1)		
O=C1CCC(N2Cc3cc(C(=O)c4ccccn4)ccc3C2=O)C(=O)N1 (centres unmarked) [Compound 12, 3-(1-oxo-5-picolinoylisoindelin-2-yi)piperidine-2,6-dione]	A (0 ≤ '% Ctrl' < 0.1)		
O=C1CCC(N2Cc3cc(C(=O)c4cccc(Nc5ccccc5)c4)ccc3C2=O)C(=O)N1 (centres unmarked) [Compound 16, 3-(1-oxo-5-(3-(phenylamino)benzoyl)isoindolin-2-yl)piperidine-2,6-dione]	A (0 ≤ '% Ctrl' < 0.1)	1000 to 10000	
O=C1CCC(N2Cc3cc(C(=O)c4cc5ccc(F)cc5[nH]4)ccc3C2=O)C(=O)N1 (centres unmarked) [Compound 19, 3-(5-(6-fluoro-1H-indole-2-carbonyl)-1-oxoisoindolin-2-yl)piperidine-2,6-dione]		≤ 100	≤ 100
O=C1CCC(N2Cc3cc(C(=O)c4cc5ccc(Cl)cc5[nH]4)ccc3C2=O)C(=O)N1 (centres unmarked) [Compound 20, 3-(5-(6-chloro-1H-indole-2-carbonyl)-1-oxoisoindolin-2-yl)piperidine-2,6-dione]		≤ 100	≤ 100
O=C1CCC(N2Cc3cc(C(=O)c4c[nH]c5ccc(-c6ccccc6)cc45)ccc3C2=O)C(=O)N1 (centres unmarked) [Compound 24, 3-(1-oxo-5-(5-phenyl-1H-indole-3-carbonyl)isoindolin-2-yl)piperidine-2,6-dione]	D (10 ≤ '% Ctrl' < 35)		
O=C1CCC(N2Cc3cc(C(=O)c4cn(-c5ccccc5)c5ccc(-c6ccccc6)cc45)ccc3C2=O)C(=O)N1 (centres unmarked) [Compound 25, 3-(5-(1,5-diphenyl-1H-indole-3-carbonyl)-1-oxoisoindolin-2-yl)piperidine-2,6-dione]	D (10 ≤ '% Ctrl' < 35)		
O=C1CCC(N2Cc3cc(C(=O)c4cccc(-c5ccccc5)c4)ccc3C2=O)C(=O)N1 (centres unmarked) [Compound 26, 3-(5-([1,1'-biphenyl]-3-carbonyl)-1-oxoisoindolin-2-yl)piperidine-2,6-dione]	A (0 ≤ '% Ctrl' < 0.1)	1000 to 10000	
O=C1CCC(N2Cc3cc(C(=O)c4cc(-c5ccccc5)c[nH]4)ccc3C2=O)C(=O)N1 (centres unmarked) [Compound 27, 3-(1-oxo-5-(4-phenyl-1H-pyrrole-2-carbonyl)isoindolin-2-yl)piperidine-2,6-dione]	A (0 ≤ '% Ctrl' < 0.1)	≤ 100	≤ 100
O=C1CCC(N2Cc3cc(C(=O)c4ccc(-c5ccccc5)[nH]4)ccc3C2=O)C(=O)N1 (centres unmarked) [Compound 28, 3-(1-oxo-5-(5-phenyl-1H-pyrrole-2-carbonyl)isoindolin-2-yl)piperidine-2,6-dione]	C (1 ≤ % Ctrl' < 10)	100 to 1000	
O=C1CCC(N2Cc3cc(C(=O)c4cc(-c5ccccc5)cs4)ccc3C2=O)C(=O)N1 (centres unmarked) [Compound 30, 3-(1-oxo-5-(4-phenylthiophene-2-carbonyl)isoindolin-2-yl)piperidine-2,6-dione]	A (0 ≤ '% Ctrl' < 0.1)	100 to 1000	
O=C1CCC(N2Cc3cc(C(=O)c4ccc(-c5ccccc5)cc4)ccc3C2=O)C(=O)N1 (centres unmarked) [Compound 33, 3-(5-([1,1'-biphenyl]-4-carbonyl)-1-oxoisoindolin-2-yl)piperidine-2,6-dione]		≤ 100	≤ 100
O=C1CCC(N2Cc3cc(C(=O)N4Cc5ccccc5C4)ccc3C2=O)C(=O)N1 (centres unmarked) [Compound 36, 3-(5-(isoindoline-2-carbonyl)-1-oxoisoindolin-2-yl)piperidine-2,6-dione]	A (0 ≤ '% Ctrl' < 0.1)	≤ 100	
O=C1CCC(N2Cc3cc(C(=O)c4ccc5c(c4)OCO5)ccc3C2=O)C(=O)N1 (centres unmarked) [Compound 42, 3-(5-(benzo[d][1,3]dioxole-5-carbonyl)-1-oxoisoindolin-2-yl)piperidine-2,6-dione]		≤ 100	≤ 100
O=C1CCC(N2Cc3cc(C(=O)c4ccc5ccccc5c4)ccc3C2=O)C(=O)N1 (centres unmarked) [Compound 44, 3-(5-(2-naphthoyl)-1-oxoisoindolin-2-yl)piperidine-2,6-dione]		≤ 100	> 10000
CN(C)c1ccc(C(=O)c2ccc3c(c2)CN(C2CCC(=O)NC2=O)C3=O)cc1 (centres unmarked) [Compound 46, 3-(5-(4-(dimethylamino)benzoyl)-1-oxoisoindolin-2-yl)piperidine-2,6-dione]		≤ 100	≤ 100
O=C1CCC(N2Cc3cc(C(=O)c4ccc(Br)cc4)ccc3C2=O)C(=O)N1 (centres unmarked) [Compound 49, 3-(5-(4-bromobenzoyl)-1-oxeisoindolin-2-yl)piperidine-2,6-dione]		≤ 100	1000 to 10000
O=C1CCC(N2Cc3cc(C(=O)c4ccc(O)cc4)ccc3C2=O)C(=O)N1 (centres unmarked) [Compound 52, 3-(5-(4-hydroxybenzoyl)-1-oxoisoindolin-2-yl)piperidine-2,6-dione]		100 to 1000	≤ 100
O=C1CCC(N2Cc3cc(C(=O)c4ccc(C5CCCCC5)cc4)ccc3C2=O)C(=O)N1 (centres unmarked) [Compound 55, 3-(5-(4-cyclohexylbenzoyl)-1-oxoisoindolin-2-yl)piperidine-2,6-dione]		≤ 100	≤ 100
Cn1c(C(=O)c2ccc3c(c2)CN(C2CCC(=O)NC2=O)C3=O)cc2ccccc21 (centres unmarked) [Compound 59, 3-(5-(1-methyl-1H-indole-2-carbonyl)-1-oxoisoindolin-2-yl)piperidine-2,6-dione]		100 to 1000	≤ 100
CC(C)(C)c1ccc(C(=O)c2ccc3c(c2)CN(C2CCC(=O)NC2=O)C3=O)cc1 (centres unmarked) [Compound 63, 3-(5-(4-(tert-butyl)benzoyl)-1-oxoisoindolin-2-yl)piperidine-2,6-dione]		≤ 100	≤ 100
O=C1CCC(N2Cc3cc(C(=O)c4ccc5ccccc5n4)ccc3C2=O)C(=O)N1 (centres unmarked) [Compound 70, 3-(1-oxo-5-(quinoline-2-carbonyl)isoindolin-2-yl)piperidine-2,6-dione]		1000 to 10000	> 10000
